What was measured:
[1] = test system: human rectal cancer LS174T (EGFR negative, Her2 positive); experiment: In vivo antitumor effects, LS174T xenograft in nude mice; conditions: Balb/c nude mice, final day
Method: (§1) Cultured human cancer cells suspended in PBS were implanted subcutaneously in the back of female Balb/c nude mice (Balb/cAJcl-nu mouse, CLEA Japan Inc., 5-week-old when received) at 5×10^6/100 μl. When about 7 days later and the average volume of the implanted tumors almost reached 100 mm^3, the mice were allotted by 4 mice per group such that the average tumor volume of each group became equal.
(§2) For the tumor volume, the longer diameter and the shorter diameter were measured with calipers and calculated as [(shorter diameter)^2×(longer diameter/2)]=tumor volume [mm^3]. A pharmaceutical agent was administered by oral gavage once a day for 14 consecutively days from the day of allottment, and the pharmaceutical agent was not administered to the mice of the control group. The relative tumor growth rate was calculated based on the tumor volume on the administration start day for the pharmaceutical agent treatment group against the control group as rate 1. The antitumor effects are shown in % control. The % control was calculated by the following formula. % control=[(average relative tumor growth rate of pharmaceutical agent treatment group on the final day-1)/(average relative tumor growth rate of control group on the final day-1)]×100

[2] = test system: human pancreatic cancer HPAC (both EGFR, Her2 positive); experiment: In vivo antitumor effects, HPAC xenograft in nude mice; conditions: Balb/c nude mice, final day
Method: as §1, §2

[3] = test system: EGFR overexpression cancer A431; conditions: EGFR overexpression cancer A431, literature; cited from earlier work
erbB3 = conditions: MDA-MB-453 cells stimulated with Heregulin, literature; cited from earlier work
[4] = test system: human cervical cancer ME180 (EGFR positive, Her2 negative); experiment: In vivo antitumor effects, ME180 xenograft in nude mice; conditions: Balb/c nude mice, final day
Method: as §1, §2

[5] = test system: human lung cancer NCI-H520 (both EGFR, Her2 negative); experiment: In vivo antitumor effects, NCI-H520 xenograft in nude mice; conditions: Balb/c nude mice, final day
Method: as §1, §2

[6] = 10 mg/kg oral once a day for 14 days
[7] = 30 mg/kg oral once a day for 14 days

For `C=CC(=O)Nc1cc2c(Nc3ccc(F)c(Cl)c3)ncnc2cc1OCCCN1CCOCC1` [PD, N-[4-(3-chloro-4-fluorophenyl)amino-7-[3-(4-morpholinyl)propoxy]quinazolin-6-yl]acrylamide], the “% control” value [1, 6] was 56 % control, the “% control” value [1, 7] was 34 % control and the “% control” value [2, 6] was 39 % control. The “% control” value [2, 7] was 11 % control and the “in vivo antitumor effect” value [3] was “shows an in vivo antitumor effect”.
For `C=CC(=O)Nc1cc2c(Nc3ccc(F)c(Cl)c3)ncnc2cc1OCCCN1CCOCC1` [PD.2HCl], the “inhibition of tyrosine phosphorylation of erbB3” value (erbB3) is listed as “inhibit tyrosine phosphorylation”, the “% control” value [4, 6] is listed as 25 % control and the “% control” value [4, 7] is listed as 17 % control. The “% control” value [5, 6] was 95 % control and the “% control” value [5, 7] was 87 % control.
